Results taken from ChEMBL document CHEMBL1131856, “Wasalexins A and B, new phytoalexins from wasabi: isolation, synthesis, and antifungal activity” (1999).

How the values were obtained:
[1] = system: Plenodomus lingam; test: Antifungal activity against P. Lingam by spore germination assay after 24 hours; range is 40-50%; format: functional
[2] = system: Plenodomus lingam; test: Antifungal activity against P. Lingam by spore germination assay after 24 hours; No detectable inhibitory activity; format: functional, organism-based

| Structure (SMILES) | Inhibition [1] | Activity [2] |
| --- | --- | --- |
| CON1C(=O)/C(=C/N=C(SC)SC)c2ccccc21 | 50% |  |
| COC(=O)c1cn(OC)c2ccccc12 | 50% |  |
| CSC(=N/C=C1/C(=O)N(C)c2ccccc21)SC |  | No detectable inhibitory activity |
